What all share (assay type): biochemical
One test deals with PKR R532W (Homo sapiens, UniProt P30613, R532W). Nature of the test: PKR Mutant Assay, AC50 against PKR R532W. The conditions noted are these: mutant PKR R532W enzyme. The protocol:
(§1) • PKR or PKR mutant enzyme solution was diluted in assay buffer. • 2 μL of test compound was added into wells first, and then 180 μL reaction mix was added. • Reactions mixture with test compound was assembled except for ADP, and plates were stored for 60 minutes at room temperature. • 20 uL ADP was added to start reaction at room temperature and reaction progress was measured as changes in absorbance at 340 nm wavelength at room temperature.
(§2) Test Compound Preparation: • Test compound stock was made at 100× concentration in 100% DMSO (10 mM) • 1 to 3 dilutions were made for 11 points (i.e. 50 μl of first concentration added to 100 μl 100% DMSO to yield 3.33 mM, 50 μl of this added to 100 μl DMSO to yield 1.11 mM, and so forth) • 1 to 100 dilution into assay (2 μl in 200 μl) yielded starting concentration of 100 μM, decreasing 3 fold for 11 points. Assay Buffer: 100 mM KCl, 50 mM Tris 7.5, 5 mM MgCl2, 1 mM DTT, 0.03% BSA Reaction Mixture: PKR mutant enzyme: 80-400 ng/well; ADP: 0.22-1.65 mM; PEP: 0.1-0.5 mM; NADH: 180 uM; LDH: 0.5 units (Sigma#59023); DTT: 1 mM; BSA: 0.03%.

For another test, the target named is PKR WT (Homo sapiens, UniProt P30613). The test is described as follows: PKR WT enzymatic AC50 assay. The conditions noted are these: wild type PKR. The protocol:
as §1, §2

Another test deals with PKR R510Q (Homo sapiens, UniProt P30613, R510Q). The test is described as follows: PKR Mutant Assay, AC50 against PKR R510Q. Particulars: mutant PKR R510Q enzyme. On the procedure: as §1, §2
PKR R510Q, sequence (P30613 whole entry R510Q): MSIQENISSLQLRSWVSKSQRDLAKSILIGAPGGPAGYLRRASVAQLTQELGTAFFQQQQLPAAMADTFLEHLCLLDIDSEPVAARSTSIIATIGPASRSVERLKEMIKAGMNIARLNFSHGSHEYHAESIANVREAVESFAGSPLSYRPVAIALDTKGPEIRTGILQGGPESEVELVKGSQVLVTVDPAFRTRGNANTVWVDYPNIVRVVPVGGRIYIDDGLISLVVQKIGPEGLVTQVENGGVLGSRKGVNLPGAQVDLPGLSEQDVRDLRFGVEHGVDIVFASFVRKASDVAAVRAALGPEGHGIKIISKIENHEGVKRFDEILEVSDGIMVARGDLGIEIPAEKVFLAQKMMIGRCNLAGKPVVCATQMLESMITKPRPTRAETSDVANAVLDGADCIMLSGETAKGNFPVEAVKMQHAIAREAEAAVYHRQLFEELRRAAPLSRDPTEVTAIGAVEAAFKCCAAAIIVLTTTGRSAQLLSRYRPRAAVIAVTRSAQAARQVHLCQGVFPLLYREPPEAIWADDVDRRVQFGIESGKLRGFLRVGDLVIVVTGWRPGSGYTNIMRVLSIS

PKR WT, sequence (P30613 whole entry): as the sequence (P30613 whole entry R510Q) above, with Q510R counted along it
PKR R532W, sequence (P30613 whole entry R532W): as the sequence (P30613 whole entry R510Q) above, with Q510R, R532W counted along it

With `CC1(CC2(O)CCN(C(=O)c3ccc(NS(=O)(=O)c4cccc5scnc45)cc3)CC2)CC1` [Compound 132, N-(4-(4-hydroxy-4-((1-methylcyclopropyl)methyl)piperidine-1-carbonyl)phenyl)benzo[d]thiazole-4-sulfonamide], the concentration at half-maximal activity (AC50) on PKR R532W, on PKR WT and on PKR R510Q was less than 0.1 µM in each case.

`O=C(c1ccc(NS(=O)(=O)c2ccc(F)c3cccnc23)cc1)N1CCC(O)(Cc2ccccc2F)CC1` [Compound 158, 5-fluoro-N-(4-(4-(2-fluorobenzyl)-4-hydroxypiperidine-1-carbonyl)phenyl)quinoline-8-sulfonamide]: the half-maximal activity concentration (AC50) on PKR R532W, on PKR WT and on PKR R510Q was less than 0.1 µM throughout.

Take `C=C(C)CC1(O)CCN(C(=O)c2ccc(NS(=O)(=O)c3cccc4scnc34)cc2)CC1` [Compound 181, N-(4-(4-hydroxy-4-(2-methylallyl)piperidine-1-carbonyl)phenyl)benzo[d]thiazole-4-sulfonamide]: the concentration at half-maximal activity (AC50) (usually the concentration giving half of the maximal activity seen) on PKR R532W was less than 0.1 µM; at PKR WT it was less than 0.1 µM; on PKR R510Q it was 0.101 to 1 µM.

Consider `O=C(c1ccc(NS(=O)(=O)c2cccc3nccnc23)cc1)N1CCC(O)(CC2CC2)CC1` [Compound 188, N-(4-(4-(cyclopropylmethyl)-4-hydroxypiperidine-1-carbonyl)phenyl)quinoxaline-5-sulfonamide], for which the AC50 was less than 0.1 µM at PKR R532W, less than 0.1 µM at PKR WT and 0.101 to 1 µM on PKR R510Q.

Consider `O=C(c1ccc(NS(=O)(=O)c2cccc3scnc23)cc1)N1CCC(O)(CC2CC2)CC1` [Compound 198, N-(4-(4-(cyclopropylmethyl)-4-hydroxypiperidine-1-carbonyl)phenyl)benzo[d]thiazole-4-sulfonamide], for which the half-maximal activity concentration (AC50) on PKR R532W was less than 0.1 µM; on PKR WT it was less than 0.1 µM; at PKR R510Q it was 0.101 to 1 µM.

On to `O=C(c1ccc(NS(=O)(=O)c2cccc3cccnc23)cc1)N1CCC(O)(/C=C/C(F)F)CC1` [Compound 200], for which the AC50 on PKR R532W was 0.101 to 1 µM; on PKR WT it was less than 0.1 µM; on PKR R510Q it was 0.101 to 1 µM.

As for `O=C(c1ccc(NS(=O)(=O)c2ccc(F)c3cccnc23)cc1)N1CCC(O)(CC2CCC2)CC1` [Compound 201, N-(4-(4-(cyclobutylmethyl)-4-hydroxypiperidine-1-carbonyl)phenyl)-5-fluoroquinoline-8-sulfonamide], the AC50 on PKR R532W was less than 0.1 µM; on PKR WT, less than 0.1 µM; at PKR R510Q it was 0.101 to 1 µM.

For `CC(C)CC1(O)CCN(C(=O)c2ccc(NS(=O)(=O)c3cc(F)cc4scnc34)cc2)CC1` [Compound 202, 6-fluoro-N-(4-(4-hydroxy-4-isobutylpiperidine-1-carbonyl)phenyl)benzo[d]thiazole-4-sulfonamide], the AC50 on PKR R532W is less than 0.1 µM; on PKR WT, less than 0.1 µM; on PKR R510Q it was 0.101 to 1 µM.

With `O=C(c1ccc(NS(=O)(=O)c2ccc(F)c3cccnc23)cc1)N1CCC(O)(Cc2ccccc2C(F)(F)F)CC1` [Compound 208, 5-fluoro-N-(4-(4-hydroxy-4-(2-(trifluoromethyl)benzyl)piperidine-1-carbonyl)phenyl)quinoline-8-sulfonamide], the AC50 was less than 0.1 µM on PKR R532W, less than 0.1 µM on PKR WT and 0.101 to 1 µM on PKR R510Q.

Regarding `CC(C)CC1(CO)CCN(C(=O)c2ccc(NS(=O)(=O)c3cccc4scnc34)cc2)CC1` [Compound 216, N-(4-(4-(hydroxymethyl)-4-isobutylpiperidine-1-carbonyl)phenyl)benzo[d]thiazole-4-sulfonamide], the values for the half-maximal activity concentration (AC50) on PKR R532W, on PKR WT and on PKR R510Q were less than 0.1 µM, less than 0.1 µM and 0.101 to 1 µM, respectively.

As for `CC(C)CC1(CO)CCN(C(=O)c2ccc(NS(=O)(=O)c3cccc4nccnc34)cc2)CC1` [Compound 219, N-(4-(4-(hydroxymethyl)-4-isobutylpiperidine-1-carbonyl)phenyl)quinoxaline-5-sulfonamide], the AC50 was less than 0.1 µM on PKR R532W, less than 0.1 µM on PKR WT and 0.101 to 1 µM on PKR R510Q.

Regarding `O=C(c1ccc(NS(=O)(=O)c2cccc3nccnc23)cc1)N1CCC(O)(CCC(F)(F)F)CC1` [Compound 221, N-(4-(4-hydroxy-4-(3,3,3-trifluoropropyl)piperidine-1-carbonyl)phenyl)quinoxaline-5-sulfonamide], the AC50 at PKR R532W is less than 0.1 µM; at PKR WT, less than 0.1 µM; at PKR R510Q, 0.101 to 1 µM.

`O=C(c1ccc(NS(=O)(=O)c2cccc(Cl)c2)cc1)N1CCC(O)(Cc2ccccc2)CC1` [Compound 281]: the AC50 at PKR R532W and at PKR WT was 0.101 to 1 µM throughout.

Regarding `O=C(c1ccc(NS(=O)(=O)c2cccc(C(F)(F)F)c2)cc1)N1CCC(O)(Cc2ccccc2)CC1` [Compound 287], the AC50 was 1.01 to 10 µM on PKR R532W and 0.101 to 1 µM on PKR WT.

On to `O=C(c1ccc(NS(=O)(=O)c2ccc3c(c2)OCO3)cc1)N1CCC(O)(Cc2ccccc2)CC1` [Compound 288], for which the figures for the AC50 at PKR R532W and at PKR WT were 1.01 to 10 µM and 0.101 to 1 µM, respectively.

Turning to `O=C(c1ccc(NS(=O)(=O)c2ccc(Cl)cc2)cc1)N1CCC(O)(Cc2ccccc2)CC1` [Compound 299], the AC50 on PKR WT lay in the range of 1.01 to 10 µM.

For the molecule `CN(C)CC1(O)CCN(C(=O)c2ccc(NS(=O)(=O)c3cccc4cccnc34)cc2)CC1` [Compound 301], the AC50 on PKR R532W and on PKR WT was 1.01 to 10 µM in each case.

`O=C(c1ccc(NS(=O)(=O)c2cccc3nonc23)cc1)N1CCC(O)(Cc2ccccc2)CC1` [Compound 310]: the AC50 on PKR R532W and at PKR WT was 1.01 to 10 µM in each case.

On to `O=C(c1ccc(NS(=O)(=O)c2cccnc2)cc1)N1CCC(O)(Cc2ccccc2)CC1` [Compound 315], for which the half-maximal activity concentration (AC50) is more than 10 µM at PKR R532W and 1.01 to 10 µM on PKR WT.

For the molecule `N#Cc1cccc(S(=O)(=O)Nc2ccc(C(=O)N3CCC(O)(Cc4ccccc4)CC3)cc2)c1` [Compound 317], the half-maximal activity concentration (AC50) on PKR WT is more than 10 µM.

With `O=C(c1ccc(NS(=O)(=O)c2cccc3cnccc23)cc1)N1CCC(O)(c2ccccc2)CC1` [Compound 319], the AC50 at PKR R532W and on PKR WT was more than 10 µM in each case.

For `O=C(c1ccc(NS(=O)(=O)c2ccc(C(F)(F)F)cc2)cc1)N1CCC(O)(Cc2ccccc2)CC1` [Compound 321], the half-maximal activity concentration (AC50) at PKR R532W and on PKR WT was more than 10 µM each time.

`O=C(c1ncc(NS(=O)(=O)c2cccc3cccnc23)cn1)N1CCC(O)(c2ccccc2)CC1` [Compound 323] had an AC50 at PKR WT of more than 10 µM.

In turn, `O=C(c1ccc(NS(=O)(=O)c2cccc3cccnc23)cc1)N1CCC(O)(CN2CCCC2)CC1` [Compound 327] came in with an AC50 at PKR R532W of 1.01 to 10 µM.

On to `CCOC(=O)C1(Cc2ccccc2)CCN(C(=O)c2ccc(NS(=O)(=O)c3cccc4cccnc34)cc2)CC1` [Compound 330], for which the AC50 at PKR R532W was 0.101 to 1 µM; at PKR R510Q it was 1.01 to 10 µM.

For the molecule `CC(C)CC1(O)CCN(C(=O)c2ccc(NS(=O)(=O)c3cnc(O)c4cccnc34)cc2)CC1` [Compound 416], the half-maximal activity concentration (AC50) is more than 10 µM at PKR R532W and 1.01 to 10 µM on PKR WT.

As to `CC(C)CC1(O)CCN(C(=O)c2ccc(NS(=O)(=O)c3cccc4snnc34)cc2)CC1` [Compound 419], the concentration at half-maximal activity (AC50) on PKR R532W and on PKR WT was more than 10 µM in each case.

For the molecule `CC(F)(F)CCC1(O)CCN(C(=O)c2ccc(NS(=O)(=O)c3cccc4scnc34)cc2)CC1` [Compound 440], the AC50 at PKR R532W and on PKR R510Q was 0.101 to 1 µM each time.

Turning to `CC(C)CC1(O)CCN(C(=O)c2ccc(NS(=O)(=O)c3cccc4cncnc34)cc2)CC1` [Compound 441], the results for the AC50 on PKR R532W and at PKR R510Q were 0.101 to 1 µM and 1.01 to 10 µM, respectively.

(Values after patent publication US9108921B2, “Therapeutic compounds and compositions” (AGIOS PHARMACEUTICALS, INC, priority 2014, dated 2015).)
